# Assay results: US7662968B2, “Process for preparing lansoprazole” (KRKA tovarna zdravil, d.d.., priority 2005, dated 2010)
# “And” between values parts separate entries of the source, which are not always exact repeats. Equal entries are not always repeated.
# Experiments:
# [1] = Release of lansoprazole from pellets (dissolution, Ph. Eur. Paddle method); assay type: physicochemical; settings: paddle 100 rpm, after one hour in artificial gastric juice pH 1.2, FIG. 1; for release of lansoprazole from pellets (comparison in words): phosphate buffer pH 6.8, 37° C.
# Procedure: The release of lansoprazole was spectrophotometrically determined using Hewlett Packard 8452 A Diode array spectrophotometer and automatic sampling system Multicell Transport System. Dissolution profiles were obtained at 37° C. using 900 ml phosphate buffer solution having pH 6.8 and Ph. Eur. Paddle method (100 rpm). Before analysis, the pellet samples were treated with artificial gastric juice (500 ml) having a pH of 1.2 for one hour, washed and quantitatively transferred into the phosphate buffer. […] Preferably more than 80%, more preferably more than 85% and most preferred more than 90% of lansoprazole are released from the compositions according to the invention within 30 minutes.
# If a lansoprazole prepared according to example 4 having a BET-surface area of 4.76 m^2/g is used, more than 90% of the drug is released within the first 30 minutes (upper curve).
# [2] = BET-surface area determination (nitrogen desorption, BET FlowSorb II 2300); assay type: physicochemical; settings: 30 vol. % nitrogen / 70 vol. % helium at 77 K
# Procedure: Unless otherwise noted, the BET-surface areas of the produced lansoprazole are determined by calculation from desorption data of nitrogen obtained on a BET FlowSorb II 2300 (Micromeritics Instrument Corp., USA) using a mixture of 30 vol. % nitrogen and 70 vol. % helium at 77 K.
# [3] = lansoprazole form A as obtained after purification and drying
release of lansoprazole from pellets (comparison in words) [1],"BET-surface area [2, 3]","drug released ([1]; pellets prepared according to Example 8, within the first 30 minutes, 900 ml phosphate buffer pH 6.8, 37° C.)",release of lansoprazole from pellets (comparison in words) ([1]; listed as lansoprazole having a BET-surface area of 4.67 m^2/g),BET-surface area ([2]; lansoprazole form A further milled),SMILES
clearly smaller release,1.0 m^2/g and 1.00 m^2/g,,,,"Cc1c(OCC(F)(F)F)ccnc1C[S+]([O-])c1nc2ccccc2[nH]1 (centres unmarked) [Example 5, 2-[[[3-methyl-4-(2,2,2-trifluoroethoxy)-2-pyridinyl]methyl]sulfinyl]-1H-benzimidazole]"
,4.67 m^2/g and 4.76 m^2/g,more than 90%,clearly faster,,"Cc1c(OCC(F)(F)F)ccnc1C[S+]([O-])c1nc2ccccc2[nH]1 (centres unmarked) [Example 4, 2-[[[3-methyl-4-(2,2,2-trifluoroethoxy)-2-pyridinyl]methyl]sulfinyl]-1H-benzimidazole]"
clearly smaller release,0.25 m^2/g,,,0.87 m^2/g,"Cc1c(OCC(F)(F)F)ccnc1C[S+]([O-])c1nc2ccccc2[nH]1 (centres unmarked) [Example 3, 2-[[[3-methyl-4-(2,2,2-trifluoroethoxy)-2-pyridinyl]methyl]sulfinyl]-1H-benzimidazole]"
